According to ChEMBL document CHEMBL1212896, “Discovery of novel cyanodihydropyridines as potent mineralocorticoid receptor antagonists” (J Med Chem, 2010):

Key:
[1] = target: T1, Mineralocorticoid receptor (Homo sapiens, UniProt P08235)
T1 sequence (P08235 whole entry): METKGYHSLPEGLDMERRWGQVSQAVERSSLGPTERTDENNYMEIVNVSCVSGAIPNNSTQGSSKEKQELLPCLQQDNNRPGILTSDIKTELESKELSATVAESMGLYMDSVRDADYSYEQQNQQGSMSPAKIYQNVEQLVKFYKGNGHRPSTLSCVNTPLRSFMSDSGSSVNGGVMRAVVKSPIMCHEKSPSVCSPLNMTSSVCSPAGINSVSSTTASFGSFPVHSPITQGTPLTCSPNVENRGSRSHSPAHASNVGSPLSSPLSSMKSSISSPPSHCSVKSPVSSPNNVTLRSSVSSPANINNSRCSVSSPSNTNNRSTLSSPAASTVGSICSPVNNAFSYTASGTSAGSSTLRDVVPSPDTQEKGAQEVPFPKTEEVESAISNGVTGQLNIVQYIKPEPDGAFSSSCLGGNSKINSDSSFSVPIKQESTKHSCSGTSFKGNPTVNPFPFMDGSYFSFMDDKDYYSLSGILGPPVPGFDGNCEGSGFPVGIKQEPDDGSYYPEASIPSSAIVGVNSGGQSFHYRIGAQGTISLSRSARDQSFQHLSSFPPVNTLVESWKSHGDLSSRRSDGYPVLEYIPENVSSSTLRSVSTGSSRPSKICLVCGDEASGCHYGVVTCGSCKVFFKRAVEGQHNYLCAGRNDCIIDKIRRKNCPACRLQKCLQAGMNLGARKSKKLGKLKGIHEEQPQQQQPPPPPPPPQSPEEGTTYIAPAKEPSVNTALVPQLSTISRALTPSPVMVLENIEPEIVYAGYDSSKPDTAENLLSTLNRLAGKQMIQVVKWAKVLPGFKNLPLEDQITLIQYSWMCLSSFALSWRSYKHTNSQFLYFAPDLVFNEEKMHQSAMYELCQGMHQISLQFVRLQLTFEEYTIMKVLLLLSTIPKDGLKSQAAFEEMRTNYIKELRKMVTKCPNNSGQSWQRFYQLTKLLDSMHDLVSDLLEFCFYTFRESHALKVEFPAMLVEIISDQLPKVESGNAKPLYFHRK
Description: Antagonist activity at mineralocorticoid receptor LBD expressed in human HUH7 cells coexpressing GAL4 by luciferase reporter gene assay

Liver microsomes [2] = test: Metabolic stability in rat liver microsomes assessed as compound remaining; type: ADME, Microsome; further: time not given here
Androgen receptor = target: T2, Androgen receptor (Homo sapiens, UniProt P10275); test: Antagonist activity at androgen receptor LBD expressed in human HUH7 cells coexpressing GAL4 by luciferase reporter gene assay; type: functional, cell-based, Huh-7
T2 sequence (P10275 whole entry): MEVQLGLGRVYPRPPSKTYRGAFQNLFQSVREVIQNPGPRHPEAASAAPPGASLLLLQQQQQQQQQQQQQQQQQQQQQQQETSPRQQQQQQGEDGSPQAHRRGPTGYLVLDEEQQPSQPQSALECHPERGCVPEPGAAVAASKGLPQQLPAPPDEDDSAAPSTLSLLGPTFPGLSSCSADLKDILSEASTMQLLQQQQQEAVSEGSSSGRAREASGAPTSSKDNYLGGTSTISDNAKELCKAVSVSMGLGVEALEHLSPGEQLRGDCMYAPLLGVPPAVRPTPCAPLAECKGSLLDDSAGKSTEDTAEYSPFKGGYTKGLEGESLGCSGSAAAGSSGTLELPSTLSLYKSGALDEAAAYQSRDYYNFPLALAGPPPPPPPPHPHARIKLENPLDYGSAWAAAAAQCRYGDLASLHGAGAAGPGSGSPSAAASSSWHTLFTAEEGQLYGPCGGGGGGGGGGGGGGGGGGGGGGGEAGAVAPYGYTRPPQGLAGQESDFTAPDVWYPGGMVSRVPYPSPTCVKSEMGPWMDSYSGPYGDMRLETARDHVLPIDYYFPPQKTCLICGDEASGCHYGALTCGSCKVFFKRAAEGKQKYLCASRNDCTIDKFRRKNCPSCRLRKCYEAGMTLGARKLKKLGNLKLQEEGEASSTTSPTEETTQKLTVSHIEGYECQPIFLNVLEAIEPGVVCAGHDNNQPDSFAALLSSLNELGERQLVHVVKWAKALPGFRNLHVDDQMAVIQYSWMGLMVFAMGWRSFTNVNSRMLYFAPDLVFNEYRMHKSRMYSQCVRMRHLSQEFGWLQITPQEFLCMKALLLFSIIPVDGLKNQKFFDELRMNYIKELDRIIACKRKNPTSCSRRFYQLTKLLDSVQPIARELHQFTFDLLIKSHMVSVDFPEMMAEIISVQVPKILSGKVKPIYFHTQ

Glucocorticoid receptor = target: T3, Glucocorticoid receptor (Homo sapiens, UniProt P04150); test: Antagonist activity at glucocorticoid receptor LBD expressed in human HUH7 cells coexpressing GAL4 by luciferase reporter gene assay; type: functional, cell-based, Huh-7
T3 sequence (P04150 whole entry): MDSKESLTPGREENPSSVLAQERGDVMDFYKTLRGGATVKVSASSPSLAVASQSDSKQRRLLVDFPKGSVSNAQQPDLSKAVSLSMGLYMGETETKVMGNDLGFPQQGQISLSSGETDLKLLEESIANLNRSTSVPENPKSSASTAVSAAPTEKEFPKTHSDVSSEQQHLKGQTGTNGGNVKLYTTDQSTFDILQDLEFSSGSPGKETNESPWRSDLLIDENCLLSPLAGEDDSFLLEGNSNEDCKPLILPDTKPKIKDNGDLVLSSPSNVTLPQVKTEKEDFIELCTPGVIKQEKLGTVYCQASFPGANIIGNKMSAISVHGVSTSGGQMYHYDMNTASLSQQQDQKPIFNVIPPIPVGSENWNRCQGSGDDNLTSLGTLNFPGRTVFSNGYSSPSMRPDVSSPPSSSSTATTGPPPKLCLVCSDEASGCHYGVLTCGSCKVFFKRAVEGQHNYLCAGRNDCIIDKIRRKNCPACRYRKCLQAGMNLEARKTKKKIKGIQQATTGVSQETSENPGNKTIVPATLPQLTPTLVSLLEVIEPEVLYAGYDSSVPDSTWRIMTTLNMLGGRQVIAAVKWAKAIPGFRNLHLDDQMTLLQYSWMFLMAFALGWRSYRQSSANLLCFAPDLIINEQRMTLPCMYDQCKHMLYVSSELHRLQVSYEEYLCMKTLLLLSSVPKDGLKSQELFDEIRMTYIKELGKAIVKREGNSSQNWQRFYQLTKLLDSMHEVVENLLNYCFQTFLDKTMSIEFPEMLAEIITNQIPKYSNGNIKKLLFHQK

Cytochrome P450 3A4 = Cytochrome P450 3A4 (Homo sapiens, UniProt P08684); test: Inhibition of CYP3A4; type: ADME
Cytochrome P450 3A4, sequence (P08684 whole entry): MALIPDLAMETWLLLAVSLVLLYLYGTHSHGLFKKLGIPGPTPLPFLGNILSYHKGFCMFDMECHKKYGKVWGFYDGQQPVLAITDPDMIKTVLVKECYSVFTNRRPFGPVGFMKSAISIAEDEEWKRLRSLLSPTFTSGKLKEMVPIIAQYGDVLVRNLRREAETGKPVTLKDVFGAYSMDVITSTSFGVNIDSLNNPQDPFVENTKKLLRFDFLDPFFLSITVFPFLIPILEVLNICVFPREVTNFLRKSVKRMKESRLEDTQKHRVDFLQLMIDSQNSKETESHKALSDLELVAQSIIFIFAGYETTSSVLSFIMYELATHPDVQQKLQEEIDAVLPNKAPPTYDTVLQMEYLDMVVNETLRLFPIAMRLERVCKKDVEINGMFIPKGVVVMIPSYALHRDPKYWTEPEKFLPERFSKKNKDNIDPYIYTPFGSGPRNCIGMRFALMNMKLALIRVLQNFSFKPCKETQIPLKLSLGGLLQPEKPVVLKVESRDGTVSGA

Cytochrome P450 2C9 = Cytochrome P450 2C9 (Homo sapiens, UniProt P11712); test: Inhibition of CYP2C9; type: ADME
Cytochrome P450 2C9, sequence (P11712 whole entry, the tested form may be a part): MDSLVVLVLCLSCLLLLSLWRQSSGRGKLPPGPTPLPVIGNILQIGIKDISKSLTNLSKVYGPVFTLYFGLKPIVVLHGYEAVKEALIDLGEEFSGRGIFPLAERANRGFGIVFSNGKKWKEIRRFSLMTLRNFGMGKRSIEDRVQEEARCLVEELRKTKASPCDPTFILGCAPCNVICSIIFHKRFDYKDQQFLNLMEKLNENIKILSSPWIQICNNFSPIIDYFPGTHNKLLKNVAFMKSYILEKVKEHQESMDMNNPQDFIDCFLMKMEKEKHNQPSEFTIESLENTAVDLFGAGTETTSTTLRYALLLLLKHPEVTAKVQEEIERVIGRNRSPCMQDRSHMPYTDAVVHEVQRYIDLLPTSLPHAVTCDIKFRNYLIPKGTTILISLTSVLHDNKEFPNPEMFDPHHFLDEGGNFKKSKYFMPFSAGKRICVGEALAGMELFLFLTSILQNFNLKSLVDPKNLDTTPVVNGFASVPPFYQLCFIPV

Progesterone receptor = target: T4, Progesterone receptor (Homo sapiens, UniProt P06401); test: Antagonist activity at progesterone receptor LBD expressed in human HUH7 cells coexpressing GAL4 by luciferase reporter gene assay; type: functional, cell-based, Huh-7
T4 sequence (P06401 whole entry): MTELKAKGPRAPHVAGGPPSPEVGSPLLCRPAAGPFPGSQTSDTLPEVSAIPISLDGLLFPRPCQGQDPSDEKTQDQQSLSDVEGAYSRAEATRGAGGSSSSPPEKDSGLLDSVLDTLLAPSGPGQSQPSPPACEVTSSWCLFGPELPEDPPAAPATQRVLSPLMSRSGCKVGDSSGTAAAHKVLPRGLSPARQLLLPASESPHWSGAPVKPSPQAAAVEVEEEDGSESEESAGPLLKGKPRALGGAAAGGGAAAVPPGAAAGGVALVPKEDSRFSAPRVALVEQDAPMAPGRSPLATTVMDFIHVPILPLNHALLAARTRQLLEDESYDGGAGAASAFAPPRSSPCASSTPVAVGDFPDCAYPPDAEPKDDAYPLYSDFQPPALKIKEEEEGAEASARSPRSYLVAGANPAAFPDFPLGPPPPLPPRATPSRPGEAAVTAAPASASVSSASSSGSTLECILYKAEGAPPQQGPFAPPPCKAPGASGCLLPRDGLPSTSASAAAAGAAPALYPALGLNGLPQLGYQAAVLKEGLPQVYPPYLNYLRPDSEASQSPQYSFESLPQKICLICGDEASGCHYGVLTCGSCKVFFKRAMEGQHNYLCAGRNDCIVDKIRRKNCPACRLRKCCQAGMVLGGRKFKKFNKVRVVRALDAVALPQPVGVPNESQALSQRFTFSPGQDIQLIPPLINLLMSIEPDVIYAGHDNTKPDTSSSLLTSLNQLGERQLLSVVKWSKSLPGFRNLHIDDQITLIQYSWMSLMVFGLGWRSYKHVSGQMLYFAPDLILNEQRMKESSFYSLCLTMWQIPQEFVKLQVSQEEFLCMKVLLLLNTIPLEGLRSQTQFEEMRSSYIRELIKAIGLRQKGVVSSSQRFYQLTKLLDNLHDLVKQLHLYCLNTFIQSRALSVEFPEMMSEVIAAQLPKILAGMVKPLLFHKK

Liver microsomes [3] = test: Metabolic stability in human liver microsomes assessed as compound remaining; type: ADME, Microsome; further: time not given here
Cytochrome P450 2D6 = Cytochrome P450 2D6 (Homo sapiens, UniProt P10635); test: Inhibition of CYP2D6; type: ADME
Cytochrome P450 2D6, sequence (P10635 whole entry): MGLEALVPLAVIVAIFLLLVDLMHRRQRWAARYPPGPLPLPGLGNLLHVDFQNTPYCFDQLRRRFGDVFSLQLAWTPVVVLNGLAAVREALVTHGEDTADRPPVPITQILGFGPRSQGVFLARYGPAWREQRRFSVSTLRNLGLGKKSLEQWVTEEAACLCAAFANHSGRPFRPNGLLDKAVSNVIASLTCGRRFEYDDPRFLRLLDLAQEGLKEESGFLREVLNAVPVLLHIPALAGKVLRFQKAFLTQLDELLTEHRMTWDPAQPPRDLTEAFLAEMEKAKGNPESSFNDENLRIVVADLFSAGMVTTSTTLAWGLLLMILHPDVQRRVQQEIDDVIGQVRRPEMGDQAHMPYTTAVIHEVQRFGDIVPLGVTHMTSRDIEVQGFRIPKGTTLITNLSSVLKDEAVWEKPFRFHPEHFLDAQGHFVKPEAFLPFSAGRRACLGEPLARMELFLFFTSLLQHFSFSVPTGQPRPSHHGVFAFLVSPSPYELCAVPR

IC50 [1] [nM] | SMILES | also measured
2790 | COC(=O)C1=C(C)NC(C)=C(C(=O)OC(C)(C)C)C1c1cccc(C)c1 (configuration not stated) | 
888 | COC(=O)C1=C(C)NC(C)=C(C(=O)OC(C)(C)C)C1c1cccc(OC)c1 (configuration not stated) | 
2830 | COC(=O)C1=C(C)NC(C)=C(C(=O)OC(C)(C)C)C1c1cccc(O)c1 (configuration not stated) | 
3200 | COC(=O)C1=C(C)NC(C)=C(C(=O)OC(C)(C)C)C1c1cccc(C#N)c1 (configuration not stated) | 
702 | COC(=O)C1=C(C)NC(C)=C(C(=O)OC(C)(C)C)C1c1cccc(C(F)(F)F)c1 (configuration not stated) | 
574 | COC(=O)C1=C(C)NC(C)=C(C(=O)OC(C)(C)C)C1c1ccc(Cl)c(F)c1 (configuration not stated) | 
2620 | COC(=O)C1=C(C)NC(C)=C(C(=O)OC(C)(C)C)C1c1ccc(OC)cc1 (configuration not stated) | 
553 | COC(=O)C1=C(C)NC(C)=C(C(=O)OC(C)(C)C)C1c1ccccc1OC (configuration not stated) | 

Continued, molecule first:

SMILES | IC50 [1] [nM] | also measured
CCOC(=O)C1=C(c2ccc(Cl)cc2)NC(C)=C(C#N)C1c1ccccc1Cl (configuration not stated) | 1090 | 
COC(=O)C1=C(C)NC(C)=C(C(=O)OC(C)(C)C)C1c1ccc(C(F)(F)F)cc1 (configuration not stated) | 309 | 
COC(=O)C1=C(C)NC(C)=C(C(=O)OC(C)(C)C)C1c1ccccc1Cl (configuration not stated) | 621 | 
COC(=O)C1=C(C)NC(C)=C(C(=O)OC(C)(C)C)C1c1ccc(F)cc1Cl (configuration not stated) | 78 | 
CC1=C(C#N)C(c2ccc(F)cc2)C(C(=O)OC(C)(C)C)=C(C)N1 (configuration not stated) | 329 | 
COC(=O)C1=C(Cc2ccccc2)NC(C)=C(C#N)C1c1ccccc1Cl (configuration not stated) | 852 | 
COC(=O)C1=C(C(F)(F)F)NC(C)=C(C#N)C1c1ccc(F)cc1Cl (configuration not stated) | 52 | Stability (Liver microsomes [2]): 6%; IC50 (Androgen receptor): 800 nM; IC50 (Glucocorticoid receptor): 3700 nM; inhibition (INH) (Cytochrome P450 3A4): 30%; inhibition (INH) (Cytochrome P450 2C9): 72%; IC50 (Progesterone receptor): 7800 nM; Stability (Liver microsomes [3]): 0%; inhibition (INH) (Cytochrome P450 2D6): 6.8%
COC(=O)C1=C(C)NC(C)=C(C#N)C1c1ccccc1Cl (configuration not stated) | 594 | 
COC(=O)C1=C(C)NC(C)=C(C(=O)OC(C)(C)C)C1c1ccccc1C (configuration not stated) | 208 | 
CC1=C(C#N)C(c2ccc(F)cc2F)C(C(=O)OC(C)(C)C)=C(C)N1 (configuration not stated) | 201 | 
CCOC(=O)C1=C(c2ccccc2)NC(C)=C(C#N)C1c1ccccc1Cl (configuration not stated) | 923 | 
